From patent publication US20240401154A1, “SYNTHESIS AND PREPARATION OF ULTRA-LOW VISCOSITY AND HIGH MAGNETIC SUSCEPTIBILITY MAGNETIC IONIC LIQUIDS” (priority 2023, published 2024)

Legend:
Type in all cases: physicochemical
[1] = Viscosity, Brookfield DVI cone and plate viscometer; settings: 21.7° C.; neat MIL dried 48 hours under vacuum
Protocol: A Brookfield DVI cone and plate viscometer equipped with a CPA-51Z cone spindle was employed to obtain viscosity measurements at […] using approximately 0.5 g of each MIL after extensive drying for 48 hours under vacuum. Viscosity measurements were conducted at 21.7° C. for 15 lanthanide and transition metal MILs examined in this study.
Viscosity measurements were conducted at 21.7° C. for 15 lanthanide and transition metal MILs examined in this study.

[2] = Effective magnetic moment from magnetic susceptibility balance (MSB); settings: per formula unit
Protocol: Magnetic properties were analyzed using a magnetic susceptibility balance (MSB, Sherwood Scientific, Cambridge, UK) and a Quantum Design Superconducting Quantum Interference Device (SQUID) magnetometer (MPMS XL-7). The magnetic properties of transition metal MILs were further studied using a SQUID magnetometer to confirm their paramagnetic nature as well as if any magnetic transition occurs in the samples.
Magnetic susceptibility (XM) was calculated through Equation (1).
Effective magnetic moment (μeff) was calculated through Equation (2). In Equation (2), T represents the temperature at which the magnetic susceptibility measurements were conducted.
15 MILs incorporating rare-earth and transition metals were examined using a magnetic susceptibility balance (MSB).

[3] = Solubility of MILs in organic solvents and water
Source text: The solubility of lanthanide and transition metal MILs was investigated in popular traditional organic solvents. […]
The solubility of lanthanide and transition metal MILs was investigated in popular traditional organic solvents.

[4] = Thermal stability, MIL as GC stationary phase with FID; settings: exponential increase in response beyond 2,000 pA
Protocol: (§1) The thermal stability of MILs was measured from 40 to 350° C. at a ramp rate of 5° C. min^−1 by performing thermogravimetric analysis (TGA) using a NETZSCH STA 449 F1 Jupiter thermal analyzer (Selb, Germany). To further investigate the thermal stability of MILs using a more sensitive technique, the solvents were employed as a gas chromatographic (GC) stationary phase and subjected to an oven temperature program from 40 to 200° C. at a ramp rate of 1° C. min^−1 and decomposition/degradation products detected using an ultra-sensitive flame ionization detector (FID), with all measurements being performed on an Agilent Technologies 7890B gas chromatograph (Santa Clara, CA, USA).
To further investigate the thermal stability of MILs using a more sensitive technique, the solvents were employed as a gas chromatographic (GC) stationary phase and subjected to an oven temperature program from 40 to 200° C. at a ramp rate of 1° C. min^−1 and decomposition/degradation products detected using an ultra-sensitive flame ionization detector (FID).

[5] = Thermal stability by thermogravimetric analysis (TGA); settings: TGA at 10% weight loss
Protocol: as §1
Volitization/degradation of MILs as a function of temperature were measured using thermogravimetric analysis. The thermal stability of magnetic ionic liquids was measured from 40 to 350° C. at a ramp rate of 5° C. min^−1 by performing thermogravimetric analysis (TGA) using a NETZSCH STA 449 F1 Jupiter thermal analyzer (Selb, Germany).
To investigate the ability of DGE-based MILs to withstand elevated temperatures without undergoing degradation/decomposition, their thermal stabilities were investigated using thermogravimetric analysis (TGA). FIG. 13 through FIG. 27 display thermograms for MILs 1 to 15. The thermogram results are summarized in greater detail in the following paragraphs.

[6] = acetone, chloroform, dichloromethane, acetonitrile, methanol, ethanol, diethyl ether, ethyl acetate, isopropanol at 20% (w/v)
[7] = hexane, heptane, benzene, toluene at 10% (w/v)
[8] = hexane, heptane, benzene, toluene at 20% (w/v)
[9] = twelve organic solvents (without acetonitrile) at 50% (w/v)

Row | SMILES | Viscosity (cP) [1] [cP] | μeff, effective magnetic moment [2] [μB] | Solubility [3, 6] | Solubility ([3]; acetonitrile at 50% (w/v)) | Solubility [3, 7] | Solubility [3, 8] | Solubility [3, 9] | Solubility ([3]; water at 0.01% (w/v)) | Onset of MIL volatilization (° C.)^1 [4] [°C] | Onset of MIL volatilization (° C.)^2 [5] [°C] | Onset of MIL volatilization (° C.)^1 ([4]; listed as [Co(C8-DGE)6][Gd(hfacac)4]2) | Onset of MIL volatilization (° C.)^1 ([4]; listed as [Co(C8-DGE)6][Ho(hfacac)4]2)
1 | O=C(C=C([O-])C(F)(F)F)C(F)(F)F.O=C(C=C([O-])C(F)(F)F)C(F)(F)F.O=C(C=C([O-])C(F)(F)F)C(F)(F)F.O=C(C=C([O-])C(F)(F)F)C(F)(F)F.O=C(C=C([O-])C(F)(F)F)C(F)(F)F.O=C(C=C([O-])C(F)(F)F)C(F)(F)F.O=C(COCC(=O)OC1CCCCC1)OC1CCCCC1.O=C(COCC(=O)OC1CCCCC1)OC1CCCCC1.O=C(COCC(=O)OC1CCCCC1)OC1CCCCC1.O=C(COCC(=O)OC1CCCCC1)OC1CCCCC1.O=C(COCC(=O)OC1CCCCC1)OC1CCCCC1.O=C(COCC(=O)OC1CCCCC1)OC1CCCCC1.[Ni+2].[Ni+2].[Ni+2] [compound 8] | 827.6 | 5.53 | S^b (soluble in acetone, chloroform, dichloromethane, acetonitrile, methanol, ethanol, diethyl ether, ethyl acetate, and isopropanol at 20% (w/v).) | S^e (insoluble in acetonitrile at 50% (w/v).) | S^a (soluble in hexane, heptane, benzene, and toluene at 10% (w/v).) | S^c (soluble in hexane, heptane, benzene, and toluene at 20% (w/v).) | S^d (soluble in acetone, chloroform, dichloromethane, methanol, ethanol, diethyl ether, ethyl acetate, isopropanol hexane, heptane, benzene, and toluene at 50% (w/v).) | S^f (insoluble in water at 0.01% (w/v).) | 154 | 182.2 |  | 
2 | O=C(C=C([O-])C(F)(F)F)C(F)(F)F.O=C(C=C([O-])C(F)(F)F)C(F)(F)F.O=C(C=C([O-])C(F)(F)F)C(F)(F)F.O=C(C=C([O-])C(F)(F)F)C(F)(F)F.O=C(C=C([O-])C(F)(F)F)C(F)(F)F.O=C(C=C([O-])C(F)(F)F)C(F)(F)F.O=C(COCC(=O)OC1CCCCC1)OC1CCCCC1.O=C(COCC(=O)OC1CCCCC1)OC1CCCCC1.O=C(COCC(=O)OC1CCCCC1)OC1CCCCC1.O=C(COCC(=O)OC1CCCCC1)OC1CCCCC1.O=C(COCC(=O)OC1CCCCC1)OC1CCCCC1.O=C(COCC(=O)OC1CCCCC1)OC1CCCCC1.[Mn+2].[Mn+2].[Mn+2] [compound 9] | 478.9 | 9.96 | S^b (soluble in acetone, chloroform, dichloromethane, acetonitrile, methanol, ethanol, diethyl ether, ethyl acetate, and isopropanol at 20% (w/v).) | S^e (insoluble in acetonitrile at 50% (w/v).) | S^a (soluble in hexane, heptane, benzene, and toluene at 10% (w/v).) | S^c (soluble in hexane, heptane, benzene, and toluene at 20% (w/v).) | S^d (soluble in acetone, chloroform, dichloromethane, methanol, ethanol, diethyl ether, ethyl acetate, isopropanol hexane, heptane, benzene, and toluene at 50% (w/v).) | S^f (insoluble in water at 0.01% (w/v).) | 159 | 176.9 |  | 
3 | CCCCCCOC(=O)COCC(=O)OCCCCCC.CCCCCCOC(=O)COCC(=O)OCCCCCC.CCCCCCOC(=O)COCC(=O)OCCCCCC.CCCCCCOC(=O)COCC(=O)OCCCCCC.CCCCCCOC(=O)COCC(=O)OCCCCCC.CCCCCCOC(=O)COCC(=O)OCCCCCC.O=C(C=C([O-])C(F)(F)F)C(F)(F)F.O=C(C=C([O-])C(F)(F)F)C(F)(F)F.O=C(C=C([O-])C(F)(F)F)C(F)(F)F.O=C(C=C([O-])C(F)(F)F)C(F)(F)F.O=C(C=C([O-])C(F)(F)F)C(F)(F)F.O=C(C=C([O-])C(F)(F)F)C(F)(F)F.[Ni+2].[Ni+2].[Ni+2] [compound 2] | 248.6 | 5.48 | S^b (soluble in acetone, chloroform, dichloromethane, acetonitrile, methanol, ethanol, diethyl ether, ethyl acetate, and isopropanol at 20% (w/v).) | S^e (insoluble in acetonitrile at 50% (w/v).) | S^a (soluble in hexane, heptane, benzene, and toluene at 10% (w/v).) | S^c (soluble in hexane, heptane, benzene, and toluene at 20% (w/v).) | S^d (soluble in acetone, chloroform, dichloromethane, methanol, ethanol, diethyl ether, ethyl acetate, isopropanol hexane, heptane, benzene, and toluene at 50% (w/v).) | S^f (insoluble in water at 0.01% (w/v).) | 166 | 257.0 |  | 
4 | O=C(C=C([O-])C(F)(F)F)C(F)(F)F.O=C(C=C([O-])C(F)(F)F)C(F)(F)F.O=C(C=C([O-])C(F)(F)F)C(F)(F)F.O=C(C=C([O-])C(F)(F)F)C(F)(F)F.O=C(C=C([O-])C(F)(F)F)C(F)(F)F.O=C(C=C([O-])C(F)(F)F)C(F)(F)F.O=C(COCC(=O)OC1CCCCC1)OC1CCCCC1.O=C(COCC(=O)OC1CCCCC1)OC1CCCCC1.O=C(COCC(=O)OC1CCCCC1)OC1CCCCC1.O=C(COCC(=O)OC1CCCCC1)OC1CCCCC1.O=C(COCC(=O)OC1CCCCC1)OC1CCCCC1.O=C(COCC(=O)OC1CCCCC1)OC1CCCCC1.[Co+2].[Co+2].[Co+2] [compound 7] | 639.4 | 8.11 | S^b (soluble in acetone, chloroform, dichloromethane, acetonitrile, methanol, ethanol, diethyl ether, ethyl acetate, and isopropanol at 20% (w/v).) | S^e (insoluble in acetonitrile at 50% (w/v).) | S^a (soluble in hexane, heptane, benzene, and toluene at 10% (w/v).) | S^c (soluble in hexane, heptane, benzene, and toluene at 20% (w/v).) | S^d (soluble in acetone, chloroform, dichloromethane, methanol, ethanol, diethyl ether, ethyl acetate, isopropanol hexane, heptane, benzene, and toluene at 50% (w/v).) | S^f (insoluble in water at 0.01% (w/v).) | 133 | 200.1 |  | 
5 | CCCCCCCCOC(=O)COCC(=O)OCCCCCCCC.CCCCCCCCOC(=O)COCC(=O)OCCCCCCCC.CCCCCCCCOC(=O)COCC(=O)OCCCCCCCC.CCCCCCCCOC(=O)COCC(=O)OCCCCCCCC.CCCCCCCCOC(=O)COCC(=O)OCCCCCCCC.CCCCCCCCOC(=O)COCC(=O)OCCCCCCCC.O=C(C=C([O-])C(F)(F)F)C(F)(F)F.O=C(C=C([O-])C(F)(F)F)C(F)(F)F.O=C(C=C([O-])C(F)(F)F)C(F)(F)F.O=C(C=C([O-])C(F)(F)F)C(F)(F)F.O=C(C=C([O-])C(F)(F)F)C(F)(F)F.O=C(C=C([O-])C(F)(F)F)C(F)(F)F.O=C(C=C([O-])C(F)(F)F)C(F)(F)F.O=C(C=C([O-])C(F)(F)F)C(F)(F)F.[Co+2].[Gd+3].[Gd+3] [MIL 14] |  |  |  |  |  |  |  |  |  |  | approximately 120 °C | 
6 | CCCCCCOC(=O)COCC(=O)OCCCCCC.CCCCCCOC(=O)COCC(=O)OCCCCCC.CCCCCCOC(=O)COCC(=O)OCCCCCC.CCCCCCOC(=O)COCC(=O)OCCCCCC.CCCCCCOC(=O)COCC(=O)OCCCCCC.CCCCCCOC(=O)COCC(=O)OCCCCCC.O=C(C=C([O-])C(F)(F)F)C(F)(F)F.O=C(C=C([O-])C(F)(F)F)C(F)(F)F.O=C(C=C([O-])C(F)(F)F)C(F)(F)F.O=C(C=C([O-])C(F)(F)F)C(F)(F)F.O=C(C=C([O-])C(F)(F)F)C(F)(F)F.O=C(C=C([O-])C(F)(F)F)C(F)(F)F.[Co+2].[Co+2].[Co+2] [MIL 1] | 175.0 |  |  |  |  |  |  |  |  |  |  | 
7 | CCCCCCCCOC(=O)COCC(=O)OCCCCCCCC.CCCCCCCCOC(=O)COCC(=O)OCCCCCCCC.CCCCCCCCOC(=O)COCC(=O)OCCCCCCCC.CCCCCCCCOC(=O)COCC(=O)OCCCCCCCC.CCCCCCCCOC(=O)COCC(=O)OCCCCCCCC.CCCCCCCCOC(=O)COCC(=O)OCCCCCCCC.O=C(C=C([O-])C(F)(F)F)C(F)(F)F.O=C(C=C([O-])C(F)(F)F)C(F)(F)F.O=C(C=C([O-])C(F)(F)F)C(F)(F)F.O=C(C=C([O-])C(F)(F)F)C(F)(F)F.O=C(C=C([O-])C(F)(F)F)C(F)(F)F.O=C(C=C([O-])C(F)(F)F)C(F)(F)F.O=C(C=C([O-])C(F)(F)F)C(F)(F)F.O=C(C=C([O-])C(F)(F)F)C(F)(F)F.[Co+2].[Ho+3].[Ho+3] [MIL 15] |  |  |  |  |  |  |  |  |  |  |  | approximately 120 °C
